# PubChem BioAssay AID1963873 (Molecular Pharmacology Branch, DTP, NCI, 2024)
# pIC50: −log10 of the molar value.
# Tested on: 276233-004-R-J1-PDC KRAS spheroids with HUVEC/MSC, viability
# Assay: Anticancer human tumor 276233-004-R-J1-PDC patient-derived colon adenocarcinoma cell line growth inhibition [KRAS2]
# Details: for pIC50: curve of first compound; for viability, T/C: stronger effect = lower value
# Summary of the method: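 KRAS-mutant tumor cells were grown as spheroids with HUVEC endothelial cells and human MSCs as stroma. Targeted agents were tested alone and with KRAS pathway inhibitors. Doses started at or near clinical Cmax, or 10 microM, descending half-log.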
# [1] = second compound 0.1 µM, first compound 0.0316 µM
# [2] = second compound 0.1 µM, first compound 0.1 µM
# [3] = second compound 0.316 µM, first compound 0.0316 µM
# [4] = second compound 0.316 µM, first compound 0.1 µM
# [5] = second compound 1 µM, first compound 0.0316 µM
# [6] = second compound 1 µM, first compound 0.1 µM
# [7] = second compound 3.16 µM, first compound 0.0316 µM
# [8] = second compound 3.16 µM, first compound 0.1 µM
# [9] = second compound 10 µM, first compound 0.0316 µM
# [10] = second compound 10 µM, first compound 0.1 µM
# 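Also: cells exposed to agents for seven days before viability read.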
# 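For viability, T/C in this document: 100% = DMSO vehicle control wells and lower values mean fewer viable cells.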
structure (smiles),measurement,setting,value
CC(C)NCC(C(=O)N1CCN(c2ncnc3c2C(C)CC3O)CC1)c1ccc(Cl)cc1 (stereo not given) + CC1OCC2(CCN(c3cnc(Sc4ccnc(N)c4Cl)c(N)n3)CC2)C1N,pIC50,second compound 0.1 µM,< 5.00
same,pIC50,second compound 0.316 µM,5.68
same,pIC50,second compound 1 µM,6.16
same,pIC50,second compound 3.16 µM,6.46
same,pIC50,second compound 10 µM,6.74
same,"viability, T/C",[1],77.2%
same,"viability, T/C",[2],75.2%
same,"viability, T/C","second compound 0.1 µM, first compound 0.316 µM",56.3%
same,"viability, T/C","second compound 0.1 µM, first compound 1 µM",65.9%
same,"viability, T/C","second compound 0.1 µM, first compound 3.16 µM",56.1%
same,"viability, T/C","second compound 0.1 µM, first compound 10 µM",51.5%
same,"viability, T/C",[3],90.4%
same,"viability, T/C",[4],69%
same,"viability, T/C","second compound 0.316 µM, first compound 0.316 µM",55.8%
same,"viability, T/C","second compound 0.316 µM, first compound 1 µM",52.8%
same,"viability, T/C","second compound 0.316 µM, first compound 3.16 µM",49.5%
same,"viability, T/C","second compound 0.316 µM, first compound 10 µM",47.5%
same,"viability, T/C",[5],68%
same,"viability, T/C",[6],59.5%
same,"viability, T/C","second compound 1 µM, first compound 0.316 µM",48.4%
same,"viability, T/C","second compound 1 µM, first compound 1 µM",52.8%
same,"viability, T/C","second compound 1 µM, first compound 3.16 µM",48.1%
same,"viability, T/C","second compound 1 µM, first compound 10 µM",40.2%
same,"viability, T/C",[7],63.3%
same,"viability, T/C",[8],58.4%
same,"viability, T/C","second compound 3.16 µM, first compound 0.316 µM",52.1%
same,"viability, T/C","second compound 3.16 µM, first compound 1 µM",41.4%
same,"viability, T/C","second compound 3.16 µM, first compound 3.16 µM",37.1%
same,"viability, T/C","second compound 3.16 µM, first compound 10 µM",31.5%
same,"viability, T/C",[9],59.1%
same,"viability, T/C",[10],57%
same,"viability, T/C","second compound 10 µM, first compound 0.316 µM",38.1%
same,"viability, T/C","second compound 10 µM, first compound 1 µM",41.7%
same,"viability, T/C","second compound 10 µM, first compound 3.16 µM",36.1%
same,"viability, T/C","second compound 10 µM, first compound 10 µM",19.1%
Cn1ncnc1[C@H]1c2n[nH]c(=O)c3cc(F)cc(c23)N[C@@H]1c1ccc(F)cc1 + CC1OCC2(CCN(c3cnc(Sc4ccnc(N)c4Cl)c(N)n3)CC2)C1N,pIC50,second compound 0.1 µM,< 7.00
same,pIC50,second compound 0.316 µM,< 7.00
same,pIC50,second compound 1 µM,< 7.00
same,pIC50,second compound 3.16 µM,< 7.00
same,pIC50,second compound 10 µM,< 7.00
same,"viability, T/C","second compound 0.1 µM, first compound 0.000316 µM",95.8%
same,"viability, T/C","second compound 0.1 µM, first compound 0.001 µM",99.4%
same,"viability, T/C","second compound 0.1 µM, first compound 0.00316 µM",102%
same,"viability, T/C","second compound 0.1 µM, first compound 0.01 µM",99%
same,"viability, T/C",[1],94.3%
same,"viability, T/C",[2],85.1%
same,"viability, T/C","second compound 0.316 µM, first compound 0.000316 µM",92.5%
same,"viability, T/C","second compound 0.316 µM, first compound 0.001 µM",83.5%
same,"viability, T/C","second compound 0.316 µM, first compound 0.00316 µM",98.1%
same,"viability, T/C","second compound 0.316 µM, first compound 0.01 µM",88.3%
same,"viability, T/C",[3],74.9%
same,"viability, T/C",[4],89.6%
same,"viability, T/C","second compound 1 µM, first compound 0.000316 µM",88.9%
same,"viability, T/C","second compound 1 µM, first compound 0.001 µM",95.2%
same,"viability, T/C","second compound 1 µM, first compound 0.00316 µM",104%
same,"viability, T/C","second compound 1 µM, first compound 0.01 µM",82.6%
same,"viability, T/C",[5],69.4%
same,"viability, T/C",[6],65.6%
same,"viability, T/C","second compound 3.16 µM, first compound 0.000316 µM",83.8%
same,"viability, T/C","second compound 3.16 µM, first compound 0.001 µM",70.1%
same,"viability, T/C","second compound 3.16 µM, first compound 0.00316 µM",68.8%
same,"viability, T/C","second compound 3.16 µM, first compound 0.01 µM",52.8%
same,"viability, T/C",[7],59.5%
same,"viability, T/C",[8],62.9%
same,"viability, T/C","second compound 10 µM, first compound 0.000316 µM",68.8%
same,"viability, T/C","second compound 10 µM, first compound 0.001 µM",66.4%
same,"viability, T/C","second compound 10 µM, first compound 0.00316 µM",64.9%
same,"viability, T/C","second compound 10 µM, first compound 0.01 µM",64.5%
same,"viability, T/C",[9],54.2%
same,"viability, T/C",[10],54%
